Laboratory results published in patent publication US7989464B2, “mGluR1 antagonists as therapeutic agents” (Schering Corporation, priority 2004, dated 2011).
Read-outs that look alike come from different tables or passages of the source.

Biological target: T1, hmGluR1 receptor (Homo sapiens, UniProt Q13255)
T1 construct: expressed in transfected cells
Experiment: IC50 determination: intracellular calcium mobilization (FLIPR) upon Quisqualate stimulation in CHO cells stably expressing hmGluR1
Assay type: cell-based
Settings: against Quisqualate 1 μM (EC80)
In short: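 CHO cells stably expressing hmGluR1 were kept overnight in DMEM high glucose with GPT and 1 mM pyruvate, then loaded 2 h with Calcium 3 dye.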

[1] = class symbols, read-out: mGIuR 1 IC50
[2] = FLIPR calcium mobilization, read-out: IC50 Class
[3] = FLIPR calcium mobilization, read-out: mGluR1 IC50

T1 sequence (Q13255 19-1194): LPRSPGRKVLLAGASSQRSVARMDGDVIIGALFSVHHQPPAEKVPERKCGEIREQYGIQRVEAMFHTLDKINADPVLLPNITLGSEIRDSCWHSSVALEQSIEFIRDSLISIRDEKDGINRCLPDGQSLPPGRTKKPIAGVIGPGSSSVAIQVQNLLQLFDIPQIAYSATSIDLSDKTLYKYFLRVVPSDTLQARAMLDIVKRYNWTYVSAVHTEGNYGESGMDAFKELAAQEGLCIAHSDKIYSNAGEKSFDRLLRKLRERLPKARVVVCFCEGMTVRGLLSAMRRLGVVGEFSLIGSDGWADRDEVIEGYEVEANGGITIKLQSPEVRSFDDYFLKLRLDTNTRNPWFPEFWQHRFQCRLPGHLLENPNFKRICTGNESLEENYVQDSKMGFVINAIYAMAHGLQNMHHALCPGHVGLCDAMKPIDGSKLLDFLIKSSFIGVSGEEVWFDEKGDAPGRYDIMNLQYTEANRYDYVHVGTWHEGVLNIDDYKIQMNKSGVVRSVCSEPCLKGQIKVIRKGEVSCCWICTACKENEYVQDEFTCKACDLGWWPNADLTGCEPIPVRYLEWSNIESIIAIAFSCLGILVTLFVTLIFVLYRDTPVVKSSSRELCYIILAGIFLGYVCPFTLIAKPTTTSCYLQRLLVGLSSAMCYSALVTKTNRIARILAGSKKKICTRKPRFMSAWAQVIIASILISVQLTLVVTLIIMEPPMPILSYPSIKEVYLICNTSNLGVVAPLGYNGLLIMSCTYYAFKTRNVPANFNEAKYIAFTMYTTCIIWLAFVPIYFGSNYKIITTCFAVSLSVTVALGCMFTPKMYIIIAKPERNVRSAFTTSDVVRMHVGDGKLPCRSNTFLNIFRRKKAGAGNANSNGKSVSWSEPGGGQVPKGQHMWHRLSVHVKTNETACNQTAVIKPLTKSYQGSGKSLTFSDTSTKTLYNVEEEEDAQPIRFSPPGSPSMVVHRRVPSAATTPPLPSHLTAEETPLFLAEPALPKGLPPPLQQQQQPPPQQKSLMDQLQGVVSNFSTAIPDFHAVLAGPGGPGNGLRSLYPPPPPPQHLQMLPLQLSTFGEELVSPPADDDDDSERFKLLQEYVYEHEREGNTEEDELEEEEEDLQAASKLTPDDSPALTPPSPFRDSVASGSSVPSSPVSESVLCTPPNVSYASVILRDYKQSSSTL

Row | Structure (SMILES) | IC50 [1] [nM] | IC50 [2] [nM] | other results
1 | CN(C)c1ccnc2sc3c(=O)n(C(C)(C)C)cnc3c12 [15P] | 150 to 1000 | – | –
2 | CN(C)c1ccnc2sc3c(=O)n(-c4ccc5ncsc5c4)cnc3c12 [7AS] | < 50 | – | –
3 | CN(C)c1ccnc2sc3c(=O)n(-c4ccccn4)cnc3c12 [7U] | 50 to 150 | – | –
4 | CCNc1ccnc2sc3c(=O)n(-c4ccc(F)cc4)cnc3c12 [28HY] | – | < 50 | –
5 | CN(C)c1ccnc2sc3c(=O)n(-c4ccc5ncoc5c4)cnc3c12 [7BS] | < 50 | – | –
6 | Cc1ccc(-n2cnc3c(sc4nccc(CN(CC5CC5)CC5CC5)c43)c2=O)cc1 [169B] | – | > 1000 | –
7 | CCN(C)c1ccnc2sc3c(=O)n(-c4ccc(OC)c(F)c4)cnc3c12 [28IA] | – | < 50 | –
8 | CN(C)c1c(C=O)cnc2sc3c(=O)n(C4CCCCC4)cnc3c12 [compound 45] | < 50 | – | –
9 | Cc1cc(N(C)C)c2c(n1)sc1c(=O)n(-c3ccc(Cl)cc3)cnc12 [7CM] | < 50 | – | –
10 | CN(C)c1ccnc2sc3c(=O)n(-c4cccc(C5CC5)c4)cnc3c12 [137B] | < 50 | – | –
11 | CNc1c(C2CC2)cnc2sc3c(=O)n(-c4ccc(OC)cc4)cnc3c12 [137E] | – | < 50 | –
12 | CN(C)c1c(Cl)cnc2sc3c(=O)n(C4CCCCC4)cnc3c12 [compound 41] | 50 to 150 | – | –
13 | COc1ccc(-n2cnc3c(sc4nccc(C(C)C)c43)c2=O)cc1 [29H] | – | < 50 | –
14 | C=CCNc1ncnc2sc3c(=O)n(-c4ccc(OC)c(F)c4)cnc3c12 [95BN] | – | 50 to 150 | –
15 | Cc1nc2ccc(-n3cnc4c(sc5nccc(N(C)C)c54)c3=O)cc2o1 [7BT] | > 1000 | – | –
16 | CCOC(=O)CSc1nc2c(sc3nc(C)cc(C)c32)c(=O)n1-c1ccc(Cl)cc1 [P-7] | 150 to 1000 | – | –
17 | C=Cc1ccc(-n2cnc3c(sc4nccc(N(C)C)c43)c2=O)cc1 [compound 136] | < 50 | – | –
18 | O=c1c2sc3nccc(NC4CCCCC4)c3c2ncn1-c1ccccc1 [28D] | > 1000 | – | –
19 | CCNc1ccnc2sc3c(=O)n(-c4cccc(Br)c4)cnc3c12 [28CR] | – | 50 to 150 | –
20 | CN(C)c1cccc2sc3c(=O)n(-c4ccc(Cl)cc4)cnc3c12 [103A] | 50 to 150 | – | –
21 | CN(C)c1ccnc2sc3c(=O)n(-c4nnc(C(F)(F)F)s4)cnc3c12 [15AF] | 150 to 1000 | – | –
22 | CN(CC(O)CO)c1ccnc2sc3c(=O)n(-c4ccc(Cl)cc4)cnc3c12 (centres unmarked) [28HQ] | – | 50 to 150 | –
23 | CN(C)c1c[n+]([O-])cc2sc3c(=O)n(-c4ccc(Cl)cc4)cnc3c12 [compound 53] | > 1000 | – | –
24 | COc1ccc(Nc2ncnc3sc4c(=O)n(C5CC5)cnc4c23)cc1 [95GL] | – | 150 to 1000 | –

Row | Structure (SMILES) | IC50 [1] [nM] | IC50 [2] [nM] | other results
25 | Cc1ccc(-n2cnc3c(sc4nccc(N(C)NS(C)(=O)=O)c43)c2=O)cc1 [73J] | – | 150 to 1000 | –
26 | O=c1c2sc3ncnc(NC4CC4)c3c2ncn1-c1ccc2occc2c1 [95AV] | – | < 50 | –
27 | CCCN(C)c1ccnc2sc3c(=O)n(C4CCCCC4)cnc3c12 [28AN] | < 50 | – | –
28 | CN(C)c1ccnc2sc3c(=O)n(C4CC4)cnc3c12 [15K] | > 1000 | – | –
29 | O=c1c2sc3nccc(NC4CCCC4)c3c2ncn1C1CCCCC1 [28T] | > 1000 | – | –
30 | CC(O)CCNc1ccnc2sc3c(=O)n(-c4ccc(Cl)cc4)cnc3c12 (centres unmarked) [28HM] | – | < 50 | –
31 | COCCn1cnc2c(sc3ncnc(NC4CCC4)c32)c1=O [95DW] | – | > 1000 | –
32 | Cc1ccc(-n2cnc3c(sc4cnnc(NCCCO)c43)c2=O)cc1 [167F] | – | > 1000 | –
33 | Cc1ccc(-n2cnc3c(sc4ncc(Br)c(NCCO)c43)c2=O)cc1 [28FN] | – | < 50 | –
34 | COc1ccc(-n2cnc3c(sc4nccc(OC)c43)c2=O)c(F)c1 [25E] | – | > 1000 | –
35 | CNc1ccnc2sc3c(=O)n(-c4ccc5occc5c4)cnc3c12 [28BH] | – | < 50 | –
36 | CCNc1ccnc2sc3c(=O)n(-c4ccc(CC)cc4)cnc3c12 [131F] | 50 to 150 | – | –
37 | CN(C)c1cncc2sc3c(=O)n(-c4ccc5c(c4)OCCO5)cnc3c12 [37C] | 50 to 150 | – | –
38 | COCCNc1ccnc2sc3c(=O)n(-c4ccc(C)cc4)cnc3c12 [28AZ] | < 50 | – | –
39 | Nc1c([N+](=O)[O-])cnc2sc3c(=O)n(C4CCCCC4)cnc3c12 [compound 174] | – | 150 to 1000 | –
40 | CN(C)c1ccnc2sc3c(=O)n(C4CCCCCC4)cnc3c12 [7X] | < 50 | – | IC50 [3]: 0.68 nM
41 | CCCc1nc2c(sc3nccc(N(C)C)c32)c(=O)n1-c1ccc(C)cc1 [116B] | 150 to 1000 | – | –
42 | C=CCNc1ncnc2sc3c(=O)n(-c4ccc(Br)cc4)cnc3c12 [95BO] | – | < 50 | IC50 [3]: 1.54 nM
43 | CCNc1ccnc2sc3c(=O)n(-c4ccc(OC)cc4C)cnc3c12 [28BO] | – | < 50 | –
44 | CCCN(C)c1ccnc2sc3c(=O)n(-c4ccc(C)cc4)cnc3c12 [28AT] | < 50 | – | –
45 | COc1ccc(-n2cnc3c(sc4nccc(N(C)C)c43)c2=O)c(F)c1 [7DK] | < 50 | – | –
46 | CN(C)c1cncc2sc3c(=O)n(C4CCCCC4)cnc3c12 [37A] | 150 to 1000 | – | –
47 | CN(C)c1ccnc2sc3c(=O)n(C4CCNCC4)cnc3c12 [15G] | > 1000 | – | –
48 | Cc1ccc(-n2cnc3c(sc4nccc(NCCCCO)c43)c2=O)cc1 [28CT] | – | < 50 | –

Row | Structure (SMILES) | IC50 [1] [nM] | IC50 [2] [nM] | other results
49 | COc1ccc(-n2cnc3c(sc4nccc(NCCO)c43)c2=O)cc1 [28DB] | – | < 50 | –
50 | COc1ccc(-n2cnc3c(sc4cccc(N(C)C)c43)c2=O)cc1 [103E] | 50 to 150 | – | –
51 | O=c1c2sc3nccc(N4CCCC4)c3c2ncn1-c1ccc(Cl)cc1 [28GF] | – | < 50 | –
52 | COc1ccc(-n2cnc3c(sc4nccc(N(C)C)c43)c2=O)cc1F [7AP] | < 50 | – | –
53 | COc1ccc(-n2cnc3c(sc4ncc(Cl)c(N(C)C)c43)c2=O)cc1 [compound 197] | – | < 50 | –
54 | O=c1c2sc3nccc(Nc4ccccc4)c3c2ncn1-c1ccc(Cl)cc1 [190C] | – | 150 to 1000 | –
55 | CNc1ccnc2sc3c(=O)n(-c4ccc(C)cc4)c(C)nc3c12 [113G] | < 50 | – | –
56 | Cc1nc(N)c2c(n1)sc1c(=O)n(-c3ccc(Cl)cc3)cnc12 [95EV] | – | < 50 | –
57 | C=C(C)CNc1ncnc2sc3c(=O)n(-c4ccc5c(c4)OCCO5)cnc3c12 [95FF] | – | < 50 | –
58 | CN(C)c1c(-c2ccc(F)cc2)cnc2sc3c(=O)n(C4CCCCC4)cnc3c12 [47B] | > 1000 | – | –
59 | CN(C)c1c(-c2cccc(C#N)c2)cnc2sc3c(=O)n(C4CCCCC4)cnc3c12 [47A] | 150 to 1000 | – | –
60 | CCN(C)c1ncnc2sc3c(=O)n(-c4ccc(C)cc4)cnc3c12 [95H] | < 50 | – | –
61 | CN(C)c1ccnc2sc3c(=O)n(Cc4cccc(Cl)c4)cnc3c12 [7R] | 150 to 1000 | – | –
62 | Cc1ccc(-n2cnc3c(sc4nccc(N(C)C)c43)c2=O)cc1C#N [7DP] | 50 to 150 | – | –
63 | C#CCNc1ncnc2sc3c(=O)n(-c4ccc(OC)c(F)c4)cnc3c12 [95EK] | – | 150 to 1000 | –
64 | CCc1nc2c(sc3nccc(N(C)C)c32)c(=O)n1-c1ccc(OC)cc1 [116E] | 50 to 150 | – | –
65 | COc1ccc(-n2cnc3c(sc4nc(N)cc(N)c43)c2=O)cc1 [59H] | – | < 50 | –
66 | CCCn1cnc2c(sc3nccc(N(C)C)c32)c1=O [15L] | > 1000 | – | –
67 | COc1cccc2sc3c(=O)n(-c4ccc(Cl)cc4)cnc3c12 [103S] | – | 150 to 1000 | –
68 | Cc1nc(N)c2c(n1)sc1c(=O)n(-c3ccc(F)cc3)cnc12 [95EW] | – | 50 to 150 | –
69 | CCNc1ccnc2sc3c(=O)n(-c4ccc5c(c4)OCCO5)cnc3c12 [28BY] | – | < 50 | –
70 | Cc1ccc(-n2cnc3c(sc4nccc(CN(C)C)c43)c2=O)cc1 [169A] | – | > 1000 | –
71 | CN(C)c1ccnc2sc3c(=O)n(Nc4ccccc4)cnc3c12 [60B] | < 50 | – | –
72 | Cc1cc(N(C)C)c2c(n1)sc1c(=O)n(-c3ccccc3)cnc12 [7DB] | < 50 | – | –
